Experimental data from patent US20050130890A1, “Amyloid beta is a ligand for FPR class receptors” (priority 2001, published 2005).

Legend:
[1] = tested on: mouse neutrophils; assay: Calcium flux in mouse neutrophils; assay type: cell-based; details: PTX 250 ng/ml for 4 h
Experimental: Preparation of Mouse Neutrophils. Neutrophils were obtained from the peritoneal cavity of wild type and gene knockout litter mates of F1 and F6 backcrosses of 129/sV FPR−/− mice with C57B1/6 mice 3-4 h after intraperitoneal injection of a 3% thioglycollate solution, as previously described (Gao J-L. et al. 1999 J Exp Med 189:657-662). The cell population was consistently composed of >90% neutrophils, as determined by light microscopy of DiffQuick-stained cytospins. Thus, hereafter we will refer to this cell preparation as neutrophils.
Calcium Flux Analysis. To monitor intracellular Ca^2+ concentration, adherent cells were harvested by incubation in phosphate-buffered saline at 37° C. for 15 min and then incubated in phosphate-buffered saline containing 2.5 μM Fura-2/AM at 37° C. for 45 min. […] Data were recorded every 200 ms as the relative ratio of fluorescence emitted at 510 nm following sequential excitation at 340 and 380 nm. The following ligands were evaluated: Aβ (nonfibrillated, human residues 1-42; California Peptide Research; Napa, Calif.), fMet-Leu-Phe (fMLF; Sigma), ATP (Life Technologies), and the chemokines RANTES (regulated upon activation normal T-cell expressed and secreted), SDF-1 (stromal cell-derived factor-1), 1-309, fractalkine, MIP-1α (macrophage inflammatory protein-1α), and KC (Peprotech, Rocky Hill, N.J.). […]

[2] = tested on: human monocytes; assay: Ca2+ mobilization in fura-2 loaded human monocytes; assay type: cell-based; details: PT-treated cells, 20 μM Aβ42
Text: Reagents and cells. Aβ peptide (Aβ42) and the peptide with reversed sequence (Aβ42-1) were purchased from California Peptide Research (Napa, Calif.). All peptides were examined for endotoxin contamination and were negative at highest concentrations used in the study. Human peripheral blood monocytes were isolated from buffy coats (National Institutes of Health Clinical Center, Bethesda, Md.) enriched for mononuclear cells by using iso-osmotic Percoll gradient. The purity of the cell preparations was examined by morphology and was >90%. Rat basophilic leukemia cell line (RBL-2H3) transfected with epitope-tagged N-formylpeptide receptor (FPR) (designated ETFR) was a kind gift of Dr. R. Snyderman (Duke University, Durham, N.C.). cDNA cloning and establishment of FPRL1-transfected human embryonic kidney (HEK) 293 cells (FPRL1/293) were described previously (Gao J. L. & Murphy P. M. 1993 J Biol Chem 268:[…]). All the transfected cells were maintained in culture media as described (Su S. B. et al. 1999 J Exp Med 189:395-402).
Chemotaxis assays and measurement of calcium mobilization. Chemotaxis assays were performed using 48-well chemotaxis chambers (Deng X. et al. 1999 Blood 94:1165-1673). The results were expressed as the mean number (±SD) of migrated cells in three high-powered fields in three replicate samples. Chemotaxis index, which represented the fold increase in the number of cells migrated in response to chemoattractants over the cell response to control medium, also was used. Ca^+ mobilization was measured by stimulating fura-2 AM-loaded human monocytes or receptor-transfected cells with various agents (Deng X. et al. 1999 Blood 94:1165-1673; Su S. B. et al. 1999 J Exp Med 189:395-402) and recording the ratio of fluorescence at 340 and 380 nm in a luminescence spectrometer with FL WinLab program (Perkin-Elmer, Beaconsfield, UK).

## pertussis toxin
[1]
  effect of pretreatment on Aβ induction of calcium flux: completely blocked
[2]
  effect of preincubation on monocyte calcium flux in response to Aβ42: completely abolished
